Assay results reported in article PMC11679793, “Structure-Activity Relationship Study of Majusculamide D: Overcoming Metabolic Instability and Severe Toxicity with a Fluoro Analogue” (Marine Drugs, 2024).

Assays:
Type in all cases: cell-based
[1] = tested on: β-catenin, Claudin-1, E-cadherin, Fibronectin, Snail, TCF8/ZEB1, Vimentin in PANC-1 cells and MIA PaCa-2 cells; assay: Western blot assay of Wnt/EMT biomarkers; details: PANC-1 and MIA PaCa-2 cells
Source text: It is well established that the metastasis of tumors was accompanied by the change of several special proteins. β-catenin is an intracellular signaling molecule primarily involved in the Wnt signaling pathway and regulates cell proliferation and differentiation. The abnormal activation of β-catenin is associated with tumor development and increased invasiveness. Claudin-1 belongs to the tight junction protein family, which maintains the barrier function between cells and is correlated with some cancers’ metastatic ability. E-cadherin is an intercellular adhesion molecule, and its decreased expression is common in the phenotype transition process of cancer cells, such as epithelial-mesenchymal transition (EMT), which is a key step in cancer metastasis. Fibronectin is an extracellular matrix protein involved in cell adhesion and migration, and its expression is often positively associated with cancer’s metastatic ability. Snail and TCF8/ZEB1 both are transcription factors that can inhibit the expression of E-cadherin and promote the EMT process. Vimentin is a marker protein of mesenchymal cells, and its expression increases during EMT, further contribute to the process of metastasis by supporting the structural changes needed for cell migration and invasion. […]
Cells were lysed in RIPA lysis buffer (Solarbio, China). The protein concentration was determined using the BCA assay. […]

[2] = tested on: PANC-1 and MIA PaCa-2 pancreatic cancer cells; assay: Wound healing assay; details: PANC-1 and MIA PaCa-2, 24 h, concentration-dependent, vs control
Source text: (§1) Figure S225. Compound 1a inhibited the migration, invasion and proliferation of pancreatic cancer cells. (A) The results of wound healing assays to investigate the effects of 1a on the migration ability against PANC-1 and MIA PaCa-2 pancreatic cancer cells. (B) The results of transwell assays to investigate the effects of 1a on the invasion ability. (C) Effects of 1a on the clonogenic ability. (D) EdU assays of 1a. (E) Western blot assays of 1a on biomarkers. Data are presented as mean ± SD, n […]
(§2) Approximately 50% of pancreatic cancer patients show distant metastases at the time […]
(§3) disease. To evaluate the inhibitory effects of majusculamide D (1a) on the migratory capabilities of pancreatic cancer cells (PANC-1 and MIA PaCa-2), wound healing assays […]
(§4) were performed (Figure S1A). […]
(§5) concentration-dependent manner. […]
(§6) inhibited the migration of these pancreatic cancer cells. Further validation with transwell […]
(§7) concentration-dependent manner compared to the control group (Figure S1B). Since cell migration and invasion are correlated with cancer metastasis, compound 1a may delay the progression of tumors’ local spread and distant metastasis by inhibiting the migration and invasion ability of pancreatic cancer cells. […]
(§8) Images were taken at 0 hour and 24 hours after treatment to record and analyzed by measuring the area of the wound at each time point using ImageJ. […]

[3] = tested on: PANC-1 and MIA PaCa-2 pancreatic cancer cells; assay: Transwell invasion assay; details: 24 h, concentration-dependent, vs control
Source text: as §1, §2, §3, §4, §5, §6, §7, §8

Which “expression levels of β-catenin, Fibronectin, Snail, TCF8/ZEB1 and Vimentin” value ([1]; increasing concentrations) does the source give for `CCCCC(C)CC(C)C(=O)N(C)C(Cc1ccc(OC)cc1)C(=O)NC(C(=O)N(C)C(C(=O)N1CC(O)CC1C(=O)N1C(=O)C=CC1C)C(C)C)C(C)OC(C)=O` (stereo not shown) [Compound 1a, Majusculamide D] here?
Its value is “decreased”.

And the “expression levels of Claudin-1 and E-cadherin” value ([1]; rising concentrations)?
The value was “increased”.

And the “scratch wound healing rate (migration)” value [2]?
The value was “significantly reduced the scratch wound healing rate”.

What about the “cell invasion (transwell)” value [3] of the same molecule?
Its value is “significantly decreased cell invasion”.
